Converted amounts (≈) assume the structure as drawn.
Experiments:
Enterobacter cloacae = experiment: MIC assay, Enterobacter cloacae (CL); assay type: cell-based; details: OD 595 nm after 18 hours
Procedure: (§1) Compounds were prepared to a concentration of 10 mM in 100% DMSO. These were then diluted to 200 μM with 50 mM tris. A 2% DMSO solution was prepared in 50 mM tris as well as a 20 μM solution of rifampicin in 2% DMSO with 50 mM tris. With each compound and control, one to one dilutions were made in a serial dilution fashion across microtiter plates with 50 mM tris. The highest concentration was 200 μM for each compound and 20 μM for rifampicin. The lowest concentrations were 1.562 μM and 0.156 μM for the compounds and rifampicin respectively.
(§2) S. aureus, E. coli, Psuedomonas aeruginosa, Enterobacter cloacae, and Enterococcus faecium cells had been grown up in a shake culture overnight at 37° C. in LB medium. These were diluted 500 fold and added to the compounds at an equal volume. The highest compound concentration was now 100 μM, and 10 μM for rifampicin. Baseline O.D. readings were taken at 595 nm utilizing a Bio-Rad 3550-UV plate reader. A second reading was taken after 18 hours.

Enterococcus faecium = experiment: MIC assay, Enterococcus faecium (FAE); assay type: cell-based; details: OD 595 nm after 18 hours
Procedure: as §1, §2

Psuedomonas aeruginosa = experiment: MIC assay, Psuedomonas aeruginosa (PS); assay type: cell-based; details: OD 595 nm after 18 hours
Procedure: as §1, §2

E. coli RNAP = E. coli RNAP (Escherichia coli, UniProt P0A8T7+P0A8V2); experiment: High throughput in vitro transcription (RNAP) assay; assay type: biochemical; details: 60 minutes incubation
Sequence of E. coli RNAP (P0A8V2 whole entry): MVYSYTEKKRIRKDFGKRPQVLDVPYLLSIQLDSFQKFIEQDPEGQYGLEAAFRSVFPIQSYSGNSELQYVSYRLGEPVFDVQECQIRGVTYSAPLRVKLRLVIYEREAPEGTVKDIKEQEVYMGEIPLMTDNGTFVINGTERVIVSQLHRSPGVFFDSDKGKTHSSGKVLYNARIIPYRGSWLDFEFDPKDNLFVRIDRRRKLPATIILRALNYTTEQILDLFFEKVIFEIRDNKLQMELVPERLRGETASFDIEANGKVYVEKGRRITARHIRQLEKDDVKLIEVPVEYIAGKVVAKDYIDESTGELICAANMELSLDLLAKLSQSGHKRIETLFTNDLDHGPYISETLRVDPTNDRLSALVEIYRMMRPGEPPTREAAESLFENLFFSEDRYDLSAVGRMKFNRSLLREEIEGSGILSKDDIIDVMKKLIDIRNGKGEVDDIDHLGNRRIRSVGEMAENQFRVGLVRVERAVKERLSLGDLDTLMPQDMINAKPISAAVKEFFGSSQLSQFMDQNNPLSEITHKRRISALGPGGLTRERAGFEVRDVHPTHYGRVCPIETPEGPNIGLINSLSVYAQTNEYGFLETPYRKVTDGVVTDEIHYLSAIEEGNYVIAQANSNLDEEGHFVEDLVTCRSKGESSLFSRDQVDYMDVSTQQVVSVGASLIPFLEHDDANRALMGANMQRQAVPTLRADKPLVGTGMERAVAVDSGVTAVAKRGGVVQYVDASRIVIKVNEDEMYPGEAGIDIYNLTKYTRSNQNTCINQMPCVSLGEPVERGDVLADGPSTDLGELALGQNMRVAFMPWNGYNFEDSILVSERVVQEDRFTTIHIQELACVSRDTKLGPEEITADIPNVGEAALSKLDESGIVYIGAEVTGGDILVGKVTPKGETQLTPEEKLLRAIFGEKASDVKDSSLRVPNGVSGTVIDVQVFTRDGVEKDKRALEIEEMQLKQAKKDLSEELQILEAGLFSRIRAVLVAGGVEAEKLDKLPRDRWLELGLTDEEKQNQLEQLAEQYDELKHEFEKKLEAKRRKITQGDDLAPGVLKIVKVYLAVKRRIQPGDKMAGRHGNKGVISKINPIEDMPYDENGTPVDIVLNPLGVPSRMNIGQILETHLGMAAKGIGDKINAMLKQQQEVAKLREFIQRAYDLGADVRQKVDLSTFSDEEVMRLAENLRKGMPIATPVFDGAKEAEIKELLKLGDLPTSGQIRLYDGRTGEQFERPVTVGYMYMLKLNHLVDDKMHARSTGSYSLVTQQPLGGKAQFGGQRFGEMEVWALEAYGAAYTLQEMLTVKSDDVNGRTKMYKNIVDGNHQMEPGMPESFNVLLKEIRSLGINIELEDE
Sequence of E. coli RNAP (P0A8T7 whole entry): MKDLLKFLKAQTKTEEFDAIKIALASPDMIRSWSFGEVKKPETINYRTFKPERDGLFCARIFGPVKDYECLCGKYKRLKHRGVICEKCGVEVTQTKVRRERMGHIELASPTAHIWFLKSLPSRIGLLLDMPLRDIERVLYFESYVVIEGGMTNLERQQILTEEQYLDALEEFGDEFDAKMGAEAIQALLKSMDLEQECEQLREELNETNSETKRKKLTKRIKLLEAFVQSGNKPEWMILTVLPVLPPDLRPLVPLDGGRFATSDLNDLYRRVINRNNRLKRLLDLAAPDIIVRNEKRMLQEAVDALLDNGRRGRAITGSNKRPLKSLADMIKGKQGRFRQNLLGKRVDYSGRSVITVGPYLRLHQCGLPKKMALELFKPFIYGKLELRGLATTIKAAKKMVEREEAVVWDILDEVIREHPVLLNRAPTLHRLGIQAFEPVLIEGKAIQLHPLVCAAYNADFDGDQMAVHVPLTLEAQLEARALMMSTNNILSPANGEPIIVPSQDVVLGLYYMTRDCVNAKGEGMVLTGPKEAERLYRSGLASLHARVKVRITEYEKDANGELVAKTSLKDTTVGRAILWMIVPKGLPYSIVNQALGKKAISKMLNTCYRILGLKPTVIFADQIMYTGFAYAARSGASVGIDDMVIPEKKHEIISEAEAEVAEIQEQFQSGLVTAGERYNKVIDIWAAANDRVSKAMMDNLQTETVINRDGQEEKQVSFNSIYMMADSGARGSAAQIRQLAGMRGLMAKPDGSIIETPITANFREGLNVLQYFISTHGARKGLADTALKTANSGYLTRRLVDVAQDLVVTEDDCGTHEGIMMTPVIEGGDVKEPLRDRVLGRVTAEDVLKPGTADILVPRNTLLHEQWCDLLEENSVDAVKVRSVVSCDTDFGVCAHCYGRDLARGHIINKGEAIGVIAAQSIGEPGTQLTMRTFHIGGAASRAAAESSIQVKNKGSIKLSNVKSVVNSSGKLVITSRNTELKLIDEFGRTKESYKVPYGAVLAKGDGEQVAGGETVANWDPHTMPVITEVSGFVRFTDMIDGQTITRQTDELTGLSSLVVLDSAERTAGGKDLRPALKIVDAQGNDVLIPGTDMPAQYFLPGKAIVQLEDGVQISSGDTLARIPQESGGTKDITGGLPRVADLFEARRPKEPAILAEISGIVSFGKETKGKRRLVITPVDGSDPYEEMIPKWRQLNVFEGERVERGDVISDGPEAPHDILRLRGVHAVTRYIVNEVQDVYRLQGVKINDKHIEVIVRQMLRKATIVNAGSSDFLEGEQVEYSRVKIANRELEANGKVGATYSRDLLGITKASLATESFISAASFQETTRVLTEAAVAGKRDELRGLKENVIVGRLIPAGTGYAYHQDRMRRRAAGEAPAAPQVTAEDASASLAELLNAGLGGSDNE
Sequence of E. coli RNAP (P0A7Z4 whole entry partner): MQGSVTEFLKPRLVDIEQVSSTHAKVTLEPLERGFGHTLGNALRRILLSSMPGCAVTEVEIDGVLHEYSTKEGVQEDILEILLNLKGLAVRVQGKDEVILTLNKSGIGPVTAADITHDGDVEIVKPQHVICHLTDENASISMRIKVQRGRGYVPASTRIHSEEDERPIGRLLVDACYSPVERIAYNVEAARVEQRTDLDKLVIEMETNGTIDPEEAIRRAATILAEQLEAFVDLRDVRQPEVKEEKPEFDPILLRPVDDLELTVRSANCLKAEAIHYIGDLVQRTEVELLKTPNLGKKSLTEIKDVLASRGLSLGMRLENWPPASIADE
Procedure: (I) High Throughput in vitro Transcription (RNAP) Assay
The reagents are added to the DMSO/compound with a Tomtec Quadra. The Quadra acts as 96-tip pipetman, combined with a movable base. The reagents and compounds are stored and used in 96-well polypropylene u-bottom microtiter plates.
The Quadra is run in backfill mode (filled with water). A total of […] of reagents must be added. This is divided into a 20 ml RNAP/Txn Buffer mix and a 25 ml DNA/NTP/water mix. The RNAP mix is added first to allow the drug a chance to interact with RNAP before RNAP interacts with DNA (this interaction lasts less than 5 seconds). The mixing of the reagents is done with a multivortexer after all reagents have been added (setting 5.5 for 90 seconds).
After incubation for 60 minutes, the reaction is stopped with 150 ml 10% TCA, which also precipitates the RNA. The RNA is allowed to sit a room temperature for approximately 15-45 minutes (until all plates have been stopped and the cell harvester has been set up).
The TCA precipitated RNA is transferred to double-thick glass filtermats using a Tomtec cell harvester. The wells of the microtiter plate are washed with 5% TCA and sucked through the same filtermat. Two additional washes with 5 % TCA solution are sufficient to reduce background counts.
The filters are then dried at 60° for 60 minutes. It is important to remove all of the liquid, or this may quench the scintillation fluid when it is added.
The dry filters are sealed into plastic bags with a heat-sealer. A hole is cut in one corner and 12 ml of "β-plate scintillant" is added to each bag.
When choosing a scintillation counting program on the Wallac Microb 1450, it is important to choose one which counts using the appropriate window for P^32. Each well is counted for 3 seconds. The data obtained is used to calculate an lC50 value.

S. aureus = experiment: MIC assay, S. aureus; assay type: cell-based; details: Staphylococcus aureus, 18 h, read-out: S. Aur. MIC
Procedure: as §1, §2

| SMILES | MIC (Enterobacter cloacae) [µM] | MIC (Enterococcus faecium) [µM] | MIC (Psuedomonas aeruginosa) [µM] | IC50 (E. coli RNAP) [µM] | MIC (S. aureus) [µM] |
| --- | --- | --- | --- | --- | --- |
| CS(=O)(=O)c1ccc(NN=C(C#N)C(=O)c2ccc(Cl)cc2)cc1 [Example 1] | < 0.5 | > 10 | > 10 | < 0.5 | > 10 |
| CS(=O)(=O)C(=NNc1ccc([N+](=O)[O-])cc1)C(=O)c1ccc(Cl)cc1 [Example 2] | 0.5 to 10 (≈ 0.191 to 3.82 µg/mL) | > 10 | > 10 | 0.5 to 10 | – |
| CC(=O)N(N=C(C#N)C(=O)c1ccc(Cl)cc1)c1ccc([N+](=O)[O-])cc1 [Example 3] | 0.5 to 10 (≈ 0.185 to 3.71 µg/mL) | > 10 | > 10 | 0.5 to 10 | > 10 |
| CSc1ccc(NN=C(C#N)C(=O)c2ccc(Cl)cc2)cc1 [Example 4] | 0.5 to 10 (≈ 0.165 to 3.3 µg/mL) | > 10 | > 10 | 0.5 to 10 | > 10 |
| C[S+]([O-])c1ccc(NN=C(C#N)C(=O)c2ccc(Cl)cc2)cc1 (stereo not shown) [Example 5] | 0.5 to 10 (≈ 0.173 to 3.46 µg/mL) | > 10 | > 10 | 0.5 to 10 | > 10 |
| N#CC(=NNc1ccc([N+](=O)[O-])cc1)C(=O)c1ccc(-c2ccccc2)cc1 [Example 6] | 0.5 to 10 (≈ 0.185 to 3.7 µg/mL) | 1 (≈ 0.37 µg/mL) | > 10 | 0.5 to 10 | > 10 |
| CS(=O)(=O)Nc1ccc(NN=C(C#N)C(=O)c2ccc(Cl)cc2)cc1 [Example 7] | 0.5 to 10 (≈ 0.188 to 3.77 µg/mL) | > 10 | > 10 | 0.5 to 10 | – |
| N#CC(=NNc1ccc([N+](=O)[O-])cc1)C(=O)c1ccc(Cl)nc1 [Example 8] | – | – | – | 0.5 to 10 | – |
| N#CC(=NNc1ccc(C(=O)O)cc1)C(=O)c1ccc(Cl)cc1 [Example 9] | > 10 | > 10 | > 10 | > 10 | – |
| CC(=O)Nc1ccc(NN=C(C#N)C(=O)c2ccc(Cl)cc2)cc1 [Example 10] | > 10 | > 10 | > 10 | > 10 | – |
| CS(=O)(=O)c1ccc(NN=C(C#N)C(=O)c2ccc(-c3ccccc3)cc2)cc1 [Example 11] | > 10 | > 10 | > 10 | > 10 | – |
| N#CC(=NNc1ccc(Cl)cc1)C(=O)c1ccc(-c2ccccc2)cc1 [Example 13] | > 10 | > 10 | > 10 | > 10 | > 10 |
| CC(=O)N(N=C(C#N)C(=O)c1ccc(Cl)cc1)c1ccc(Cl)cc1 [Example 14] | 0.5 to 10 (≈ 0.18 to 3.6 µg/mL) | > 10 | > 10 | > 10 | > 10 |
| Cc1c(C(=O)C(C#N)=NNc2ccc([N+](=O)[O-])cc2)sc2ccc(Cl)cc12 [Example 15] | < 0.5 | 0.5 to 10 (≈ 0.199 to 3.99 µg/mL) | > 10 | < 0.5 | > 10 |
| Cc1c(C(=O)C(C#N)=NNc2ccc(C(C)C)cc2)sc2ccc(Cl)cc12 [Example 16] | 0.5 to 10 (≈ 0.198 to 3.96 µg/mL) | > 10 | > 10 | 0.5 to 10 | > 10 |
| N#CC(=NNc1ccc([N+](=O)[O-])cc1)C(=O)c1ccc(Cl)cc1 [Example 17, 2-(4-nitrophenyl)hydrazono-3-oxo-3-(4-chlorophenyl)propionitrile] | < 0.5 | < 0.5 | > 10 | < 0.5 | 0.5 to 10 (≈ 0.164 to 3.29 µg/mL) |
| N#CC(=NNc1ccc(OC(F)(F)F)cc1)C(=O)c1ccc(Cl)cc1 [Example 18] | 0.5 to 10 (≈ 0.184 to 3.68 µg/mL) | 0.5 to 10 (≈ 0.184 to 3.68 µg/mL) | > 10 | 0.5 to 10 | 0.5 to 10 (≈ 0.184 to 3.68 µg/mL) |
| N#CC(=NNc1ccc(Cl)cc1)C(=O)c1ccc(Cl)cc1 [Example 19] | 0.5 to 10 (≈ 0.159 to 3.18 µg/mL) | > 10 | > 10 | 0.5 to 10 | > 10 |
| N#CC(=NNc1cc(C(F)(F)F)cc(C(F)(F)F)c1)C(=O)c1ccccc1 [Example 20] | 0.5 to 10 (≈ 0.193 to 3.85 µg/mL) | > 10 | > 10 | 0.5 to 10 | 0.5 to 10 (≈ 0.193 to 3.85 µg/mL) |
| N#CC(=NNc1ccc(F)cc1)C(=O)c1ccc(OC(F)(F)F)cc1 [Example 21] | 0.5 to 10 (≈ 0.176 to 3.51 µg/mL) | > 10 | > 10 | 0.5 to 10 | 0.5 to 10 (≈ 0.176 to 3.51 µg/mL) |
| N#CC(=NNc1ccc([N+](=O)[O-])cc1)C(=O)c1cccc(Cl)c1 [Example 22] | > 10 | > 10 | > 10 | > 10 | – |
| N#CC(=NNc1ccc([N+](=O)[O-])cc1)C(=O)c1ccccc1 [Example 23] | 0.5 to 10 (≈ 0.147 to 2.94 µg/mL) | > 10 | > 10 | > 10 | 0.5 to 10 (≈ 0.147 to 2.94 µg/mL) |
